Consider 3 compounds from patent US11008292B2, “FGFR4 inhibitor and preparation method and use thereof” (GUANGDONG ZHONGSHENG PHARMACEUTICAL CO., LTD, priority 2016, dated 2021).

Molecules are shown by their SMILES.

One data set addresses T1, FGFR1 protein kinase (Homo sapiens, UniProt P11362).
T1 construct: purchased Life technology
Nature of the data set: In vitro enzyme activity test, Z′-LYTE Assay, FGFR1 enzymatic reaction. The class given is biochemical. The conditions noted are these: Z′-LYTE detection; 25 μM ATP. How it is done:
(§1) The inhibitory effects of the compounds on FGFR4 kinases were assessed by detecting the enzymatic activities through Z′-LYTE® Assay, with the IC50 value of the compound as the indicator. This activity test was performed by Life technology.
(§2) The test compounds were diluted in a concentration gradient of 3-times, the final concentrations were 10 concentrations ranging from 10 μM to 0.5 nM, with double hole for each concentration; the content of DMSO in the detection reaction was 1%.
FGFR1 Enzymatic Reaction:
1 nM FGFR1 protein kinase, 2 μM Tyr4 peptide, 25 μM ATP, 50 mM HEPES (pH 7.5), 10 mM MgCl2, 1 mM EGTA, 0.01% BRIJ-35, 2 mM MnCl2, 1 mM DTT. The detection plate was Black Proxiplate 384-Plus plate (PerkinElmer), reaction conducted at room temperature for 60 minutes, and the reaction system was 10μμL.
(§3) To the kinase reaction solution was added 5 μL Development reagent B (1:64) to stop the reaction and incubated at 23° C. for 60 minutes, reading the plate with Envision instrument.
(§4) Data was transformed into the phosphorylation rate and the inhibitory rate by curve fitting with Model 205 in XLFIT (iDBS) to obtain the IC50 data of the compounds. It was set as 0% if the bottom of the curve was not in the range of −20% to 20%; otherwise it was set as 100% if the top of the curve was not in the range of 70% to 130%.

Data set [1] concerns Hep3B Transplantation Models. The experiment in a line: Tumor growth inhibition (TGI), antitumor activity test of mice in vivo. The conditions noted are these: Hep3B transplantation model. How it is done: The evolutionary growth potential of a tumor was assessed by the relationship between the volume of the tumor and time. The long axis (L) and short axis (W) of a subcutaneous tumor were determined by a caliper twice a week, the tumor volume (TV) was calculated by the formula of ((L×W^2)/2). TGI was calculated by the difference value between the median of tumor volumes of mice in the solvent group and the median of tumor volumes of mice in the drug group, and represented by the percentage accounting for the median of tumor volumes in the solvent control group,
Calculated by the following formula: % TGI=((the median of tumor volume (control group)−the median of tumor volume (dosing group))/the median of tumor volume (control group))×100%
The original statistical analysis was completed by the analysis of repeated variance determination. Subsequently, multiple comparisons were performed by a Scheffe psot hoc experimental method. Single solvent (0.5% methylcellulose+1% aqueous solution of Tween) was the negative control.

The next data set addresses T2, FGFR4 kinases (Homo sapiens, UniProt P22455).
T2 construct: purchased Life technology
The experiment in a line: In vitro enzyme activity test, Z′-LYTE Assay, FGFR4 enzymatic reaction. The class given is biochemical. The settings on record: Z′-LYTE detection; 150 μM ATP. How it is done: as §1, §2
FGFR4 Enzymatic Reaction:
[…] The detection plate was Bar-coded Corning, low volume NBS, black 384-well plate, reaction conducted at room temperature for 60 minutes, and the reaction system was 10μμL.
as §3, §4

A short description of data set [2]: Pharmacokinetic evaluation in mice (IV and oral gavage). The class given is in vivo, female Balb/c nude mice. The conditions noted are these: for AUC(0-t) / clearance / half-life / Vd / Cmax / Tmax: mouse, plasma; for clearance: read-out: Cl (plasma clearance); for half-life: read-out: T1/2 (elimination half-life) (converted); for Vd: read-out: Vdss (steady-state apparent volume of distribution); for Cmax: read-out: Cmax (peak concentration); for Tmax: read-out: Tmax (time to peak). How it is done:
[…] The test compound suspended in the corresponding solvent at 1 mg/ml was administered by gavage to female Balb/c nude mice (fasted overnight, at an age of 7-9 weeks), with a dosage of 10 mg/kg. Two groups of animals were both blood sampled about 30 μL from jugular vein or tail vein at 0.0833, 0.25, 0.5, 1.0, 2.0, 4.0, 6.0, 8.0 and 24 h post-administration, which was placed into an anticoagulant tube charged with EDTA-K2, and plasma was separated by centrifugation. Plasma concentrations were determined by LC-MS/MS process using WinNonlin™ Version 6.3 (Pharsight, Mountain View, Calif.) pharmacokinetic software, calculating the related pharmacokinetic parameters with a linear logarithmic trapezoidal method for […] models.

[3] abbreviates: IV tail vein 2 mg/kg, female Balb/c nude mice.
Setting [4] is: PO gavage 10 mg/kg, female Balb/c nude mice.

T1 sequence (P11362 22-822): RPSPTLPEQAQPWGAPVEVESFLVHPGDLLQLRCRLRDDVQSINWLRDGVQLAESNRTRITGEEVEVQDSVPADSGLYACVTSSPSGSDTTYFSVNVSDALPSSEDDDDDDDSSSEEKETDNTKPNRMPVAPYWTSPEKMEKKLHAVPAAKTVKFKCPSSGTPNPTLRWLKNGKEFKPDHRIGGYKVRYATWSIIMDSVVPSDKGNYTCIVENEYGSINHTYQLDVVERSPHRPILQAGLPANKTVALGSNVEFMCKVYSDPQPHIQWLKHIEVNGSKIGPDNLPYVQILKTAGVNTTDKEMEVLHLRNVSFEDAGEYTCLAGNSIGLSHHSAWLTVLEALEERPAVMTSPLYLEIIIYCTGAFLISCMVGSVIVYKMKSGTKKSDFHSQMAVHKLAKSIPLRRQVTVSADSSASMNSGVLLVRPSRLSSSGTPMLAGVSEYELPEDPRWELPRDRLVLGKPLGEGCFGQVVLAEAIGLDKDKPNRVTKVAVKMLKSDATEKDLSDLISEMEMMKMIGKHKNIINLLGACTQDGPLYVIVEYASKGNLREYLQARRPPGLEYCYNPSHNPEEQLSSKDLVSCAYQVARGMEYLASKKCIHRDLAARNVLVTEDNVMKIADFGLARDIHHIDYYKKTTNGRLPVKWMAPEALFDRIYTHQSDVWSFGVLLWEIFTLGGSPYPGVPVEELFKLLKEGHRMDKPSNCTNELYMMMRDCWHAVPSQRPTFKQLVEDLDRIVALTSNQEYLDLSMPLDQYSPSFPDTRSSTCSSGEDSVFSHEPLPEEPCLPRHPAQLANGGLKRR
T2 sequence (P22455 22-802): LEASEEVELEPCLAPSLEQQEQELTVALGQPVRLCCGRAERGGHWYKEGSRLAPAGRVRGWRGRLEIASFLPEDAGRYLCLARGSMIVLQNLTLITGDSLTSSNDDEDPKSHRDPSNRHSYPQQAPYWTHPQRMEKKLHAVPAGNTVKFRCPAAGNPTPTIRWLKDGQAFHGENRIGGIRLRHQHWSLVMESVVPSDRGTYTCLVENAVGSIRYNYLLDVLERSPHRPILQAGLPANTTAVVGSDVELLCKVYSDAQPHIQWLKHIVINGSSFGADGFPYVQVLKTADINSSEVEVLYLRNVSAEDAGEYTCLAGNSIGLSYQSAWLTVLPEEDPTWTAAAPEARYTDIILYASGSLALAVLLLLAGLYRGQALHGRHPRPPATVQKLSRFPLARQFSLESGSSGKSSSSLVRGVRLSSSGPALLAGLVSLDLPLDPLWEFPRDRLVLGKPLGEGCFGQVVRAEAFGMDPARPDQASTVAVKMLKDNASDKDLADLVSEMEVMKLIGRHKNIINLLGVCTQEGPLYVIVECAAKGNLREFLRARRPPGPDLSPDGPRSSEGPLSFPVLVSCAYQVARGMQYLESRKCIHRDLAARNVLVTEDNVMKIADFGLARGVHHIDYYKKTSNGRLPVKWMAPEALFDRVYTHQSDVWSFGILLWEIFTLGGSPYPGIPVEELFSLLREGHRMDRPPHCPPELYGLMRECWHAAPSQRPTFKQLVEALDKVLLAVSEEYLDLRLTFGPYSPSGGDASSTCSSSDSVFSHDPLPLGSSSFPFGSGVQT

Consider `C=CC(=O)NC1COCC1Nc1ncc(C=C(F)c2c(Cl)c(OC)cc(OC)c2Cl)cn1` (single isomer, unassigned) [Example 21], for which, at FGFR1 protein kinase, it took 1460 nM to reach half-maximal inhibition (IC50). Moreover, the “TGI % (dosing on Day 21 for the last time)” value (“TGI %” below) in data set [1] (100 mg/kg, BID) came out at 106%. This compound also came in with an IC50 at FGFR4 kinases of 17 nM. Besides, the “F (bioavailability; oral absorption ratio)” value in data set [2] (PO gavage 10 mg/kg vs IV 2 mg/kg, female Balb/c nude mice) is listed as 20.4%. For the same compound, in data set [2] (setting [3]), the exposure AUC(0-t) turned out to be 1.42 µM·h, the clearance was found to be 48.2 mL/min/kg, the half-life is 17.5 min and the Vd came to 0.723 L/kg. Also, in data set [2] (setting [4]), the AUC(0-t) was determined as 1.07 µM·h, the Cmax was found to be 1120 nM and the time of peak concentration (Tmax) was determined as 15 min.
With `C=CC(=O)Nc1cccc(C)c1Nc1ccc(/C=C(\F)c2c(Cl)c(OC)cc(OC)c2Cl)cn1` [Example 7], the IC50 at FGFR1 protein kinase is over 10000 nM; at FGFR4 kinases, 31 nM. For the same compound, the “TGI %” value in data set [1] (30 mg/kg BID) turned out to be 108%.
On FGFR1 protein kinase, `C=CC(=O)N[C@H]1CCOC[C@H]1Nc1ncc(/C=C(\F)c2c(Cl)c(OC)cc(OC)c2Cl)cn1` [Example 16] yielded an IC50 of 2520 nM. For the same compound, the “TGI %” value in data set [1] (100 mg/kg, BID) came to 89%. Also, on FGFR4 kinases, the IC50 turned out to be 67.5 nM. For the same compound, the “stability enhanced (plasma clearance) compared with the control example 4” value in data set [2] (IV, mice, ratio to control example 4) was determined as 3 times. For the same compound, in data set [2] (setting [3]), the AUC(0-t) is 2.8 µM·h, the clearance was 23.9 mL/min/kg, the half-life is 40.6 min and the Vd stood at 1.2 L/kg. Moreover, in data set [2] (setting [4]), the exposure AUC(0-t) came to 5.64 µM·h, the Cmax came to 3290 nM and the time to peak (Tmax) is 30 min.
